How the values were obtained:
[1] = test system: SAGPY (Sagittaria pygmaea); test: Flooded paddy, preemergence weed control; format: in vivo, L.; conditions: rated 3-4 weeks after treatment, 0-9 rating scale
Summary of the method: (§1)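 Seeds or propagules were planted in the top 0.5 cm of silt loam soil and kept flooded 1.5–3 cm above the surface throughout, then held in the greenhouse. Injury was rated visually on a 0–9 scale against untreated controls, covering stand, vigor, malformation, size and chlorosis.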

[2] = test system: TRZAWR (Wheat, Winter, cv Riband); test: Postemergence herbicidal evaluation; format: in vivo, Triticum aestivum; conditions: for TRZAWR herbicidal rating: postemergence
Summary of the method: (§2)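 Visual 0–9 injury scores versus control plants, covering stand, vigour, malformation, size, chlorosis and general appearance, taken four to five weeks post-spray and averaged over replicate tests. Plants were sprayed at roughly two weeks old and held on greenhouse benches.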

[3] = test system: IPOHE (Ipomoea hederacea); test: Postemergence herbicidal evaluation; format: in vivo, (L.) Jacq.; conditions: for IPOHE herbicidal rating: postemergence
Summary of the method: as §2

[4] = test system: MOOVA (Monochoria vaginalis); test: Flooded paddy, preemergence weed control; format: in vivo, Presl.; conditions: rated 3-4 weeks after treatment, 0-9 rating scale
Summary of the method: as §1

GALAP (Galium aparine) [5] = test: Postemergence herbicidal evaluation; format: in vivo; conditions: for GALAP herbicidal rating: postemergence
Summary of the method: as §2

[6] = test system: AMBEL (Ambrosia artemisifolia); test: Preemergence herbicidal evaluation; format: in vivo, L.; conditions: rated 4-5 weeks after treatment
Summary of the method: (§3)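 Rating 0–9, visual, vs control; 4–5 wk after spraying seeded cups with compound in aq. acetone; conventional greenhouse care.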

[7] = test system: CHEAL (Chenopodium album); test: Preemergence herbicidal evaluation; format: in vivo, L.; conditions: rated 4-5 weeks after treatment
Summary of the method: as §3

[8] = test system: CASOB (Cassia obtusifolia); test: Preemergence herbicidal evaluation; format: in vivo, L.; conditions: rated 4-5 weeks after treatment
Summary of the method: as §3

CYPIR (Cyperus iria) = test: Flooded paddy, preemergence weed control; format: in vivo; conditions: rated 3-4 weeks after treatment, 0-9 rating scale
Summary of the method: as §1

SETVI (Setaria viridis) [9] = test: Postemergence herbicidal evaluation; format: in vivo, (L.) Beau; conditions: for SETVI herbicidal rating: postemergence
Summary of the method: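 ~2-wk seedlings; spray 0.0040–1.000 kg/ha in 50/50 acetone/water + 0.5% TWEEN 20, 40 psi nozzle. Greenhouse hold; visual 0–9 rating vs control at 4–5 wk; multiple tests averaged.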

[10] = test system: CYPSE (Cyperus serotinus); test: Flooded paddy, preemergence weed control; format: in vivo, Rottb.; conditions: rated 3-4 weeks after treatment, 0-9 rating scale
Summary of the method: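 Seeds or propagules were planted 0.5 cm deep in silt loam and flooded to 1.5–3 cm. Compounds in 50/50 v/v aqueous/acetone were pipetted into the flood water at about 0.0080 to 0.1250 kg/ha. After 3–4 weeks in the greenhouse, effect was rated visually on a 0–9 scale versus untreated control.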

ORYSAT (Rice, Tebonnet) [11] = test: Preemergence herbicidal evaluation; format: in vivo, Oryza sativa, (L.) Tebonnet; conditions: rated 4-5 weeks after treatment
GALAP (Galium aparine) [12] = test: Preemergence herbicidal evaluation; format: in vivo; conditions: rated 4-5 weeks after treatment
Summary of the method: as §3

SETVI (Setaria viridis) [13] = test: Preemergence herbicidal evaluation; format: in vivo, (L.) Beau; conditions: rated 4-5 weeks after treatment
Summary of the method: as §3

[14] = test system: ECHCG (Echinochloa crus-galli); test: Preemergence herbicidal evaluation; format: in vivo, (L.) Beau; conditions: rated 4-5 weeks after treatment
Summary of the method: as §3

[15] = test system: ABUTH (Abutilon theophrasti); test: Postemergence herbicidal evaluation; format: in vivo, Medic.; conditions: for ABUTH herbicidal rating: postemergence
Summary of the method: as §2

[16] = test system: AMBEL (Ambrosia artemisifolia); test: Postemergence herbicidal evaluation; format: in vivo, L.; conditions: for AMBEL herbicidal rating: postemergence
Summary of the method: as §2

[17] = test system: CHEAL (Chenopodium album); test: Postemergence herbicidal evaluation; format: in vivo, L.; conditions: for CHEAL herbicidal rating: postemergence
Summary of the method: as §2

[18] = test system: CASOB (Cassia obtusifolia); test: Postemergence herbicidal evaluation; format: in vivo, L.; conditions: for CASOB herbicidal rating: postemergence
Summary of the method: as §2

ORYSAT (Rice, Tebonnet) [19] = test: Postemergence herbicidal evaluation; format: in vivo, Oryza sativa, (L.) Tebonnet; conditions: for ORYSAT herbicidal rating: postemergence
Summary of the method: as §2

Cn1c(C(F)(F)F)cc(=O)n(-c2ccc3snc(C4OCCCS4)c3c2)c1=O (stereo not shown) [Compound 34, 1-methyl-3-[3-(1,3-oxathian-2-yl)-1,2-benzisothiazol-5-yl]-6-(trifluoromethyl)uracil]
herbicidal rating, SAGPY ([1]; rate 0.0080 kg/ha): 0.0
herbicidal rating, SAGPY ([1]; rate 0.0320 kg/ha): 4.7
herbicidal rating, SAGPY ([1]; rate 0.0620 kg/ha): 3.5
TRZAWR herbicidal rating ([2]; rate 0.0320 kg/ha): 4.0
TRZAWR herbicidal rating ([2]; rate 0.0620 kg/ha): 6.5
Postemergence herbicidal rating, TRZAWR ([2]; rate 0.0320 kg/ha): 5.5
Postemergence herbicidal rating, TRZAWR ([2]; rate 0.0620 kg/ha): 5.5
IPOHE herbicidal rating ([3]; rate 0.0320 kg/ha): 9.0
IPOHE herbicidal rating ([3]; rate 0.0620 kg/ha): 9.0
Postemergence herbicidal rating, IPOHE ([3]; rate 0.0320 kg/ha): 9.0
Postemergence herbicidal rating, IPOHE ([3]; rate 0.0620 kg/ha): 9.0
herbicidal rating, MOOVA ([4]; rate 0.0320 kg/ha): 9.0
herbicidal rating, MOOVA ([4]; rate 0.0620 kg/ha): 9.0
herbicidal rating, MOOVA ([4]; rate 0.1250 kg/ha): 9.0
GALAP herbicidal rating (GALAP (Galium aparine) [5]; rate 0.0320 kg/ha): 2.0
GALAP herbicidal rating (GALAP (Galium aparine) [5]; rate 0.0620 kg/ha): 6.0
Postemergence herbicidal rating, GALAP (GALAP (Galium aparine) [5]; rate 0.0320 kg/ha): 6.0
Postemergence herbicidal rating, GALAP (GALAP (Galium aparine) [5]; rate 0.0620 kg/ha): 7.0
AMBEL preemergence herbicidal rating ([6]; Rate 0.0620 kg/ha): 9.0
Preemergence herbicidal rating AMBEL ([6]; Rate 0.0620 kg/ha): 9.0
AMBEL preemergence herbicidal rating ([6]; Rate 0.1250 kg/ha): 9.0
Preemergence herbicidal rating AMBEL ([6]; Rate 0.1250 kg/ha): 9.0
AMBEL preemergence herbicidal rating ([6]; Rate 0.2500 kg/ha): 9.0
Preemergence herbicidal rating AMBEL ([6]; Rate 0.2500 kg/ha): 9.0
CHEAL preemergence herbicidal rating ([7]; Rate 0.0620 kg/ha): 9.0
Preemergence herbicidal rating CHEAL ([7]; Rate 0.0620 kg/ha): 9.0
CHEAL preemergence herbicidal rating ([7]; Rate 0.1250 kg/ha): 9.0
Preemergence herbicidal rating CHEAL ([7]; Rate 0.1250 kg/ha): 9.0
CHEAL preemergence herbicidal rating ([7]; Rate 0.2500 kg/ha): 9.0
Preemergence herbicidal rating CHEAL ([7]; Rate 0.2500 kg/ha): 9.0
CASOB preemergence herbicidal rating ([8]; Rate 0.0620 kg/ha): 5.0
Preemergence herbicidal rating CASOB ([8]; Rate 0.0620 kg/ha): 2.5
CASOB preemergence herbicidal rating ([8]; Rate 0.1250 kg/ha): 9.0
Preemergence herbicidal rating CASOB ([8]; Rate 0.1250 kg/ha): 3.0
CASOB preemergence herbicidal rating ([8]; Rate 0.2500 kg/ha): 9.0
Preemergence herbicidal rating CASOB ([8]; Rate 0.2500 kg/ha): 4.5
herbicidal rating, CYPIR (CYPIR (Cyperus iria); rate 0.0320 kg/ha): 9.0
herbicidal rating, CYPIR (CYPIR (Cyperus iria); rate 0.0620 kg/ha): 7.0
SETVI herbicidal rating (SETVI (Setaria viridis) [9]; rate 0.0320 kg/ha): 9.0
SETVI herbicidal rating (SETVI (Setaria viridis) [9]; rate 0.0620 kg/ha): 9.0
Postemergence herbicidal rating, SETVI (SETVI (Setaria viridis) [9]; rate 0.0320 kg/ha): 6.0
Postemergence herbicidal rating, SETVI (SETVI (Setaria viridis) [9]; rate 0.0620 kg/ha): 8.0
herbicidal rating, CYPSE ([10]; rate 0.0620 kg/ha): 9.0
herbicidal rating, CYPSE ([10]; rate 0.1250 kg/ha): 9.0
ORYSAT preemergence herbicidal rating (ORYSAT (Rice, Tebonnet) [11]; Rate 0.0620 kg/ha): 5.5
Preemergence herbicidal rating ORYSAT (ORYSAT (Rice, Tebonnet) [11]; Rate 0.0620 kg/ha): 3.0
ORYSAT preemergence herbicidal rating (ORYSAT (Rice, Tebonnet) [11]; Rate 0.1250 kg/ha): 8.0
Preemergence herbicidal rating ORYSAT (ORYSAT (Rice, Tebonnet) [11]; Rate 0.1250 kg/ha): 4.5
ORYSAT preemergence herbicidal rating (ORYSAT (Rice, Tebonnet) [11]; Rate 0.2500 kg/ha): 9.0
Preemergence herbicidal rating ORYSAT (ORYSAT (Rice, Tebonnet) [11]; Rate 0.2500 kg/ha): 5.5
GALAP preemergence herbicidal rating (GALAP (Galium aparine) [12]; Rate 0.0620 kg/ha): 5.0
Preemergence herbicidal rating GALAP (GALAP (Galium aparine) [12]; Rate 0.0620 kg/ha): 9.0
GALAP preemergence herbicidal rating (GALAP (Galium aparine) [12]; Rate 0.1250 kg/ha): 9.0
Preemergence herbicidal rating GALAP (GALAP (Galium aparine) [12]; Rate 0.1250 kg/ha): 9.0
GALAP preemergence herbicidal rating (GALAP (Galium aparine) [12]; Rate 0.2500 kg/ha): 9.0
Preemergence herbicidal rating GALAP (GALAP (Galium aparine) [12]; Rate 0.2500 kg/ha): 9.0
SETVI preemergence herbicidal rating (SETVI (Setaria viridis) [13]; Rate 0.0620 kg/ha): 9.0
Preemergence herbicidal rating SETVI (SETVI (Setaria viridis) [13]; Rate 0.0620 kg/ha): 9.0
SETVI preemergence herbicidal rating (SETVI (Setaria viridis) [13]; Rate 0.1250 kg/ha): 9.0
Preemergence herbicidal rating SETVI (SETVI (Setaria viridis) [13]; Rate 0.1250 kg/ha): 9.0
SETVI preemergence herbicidal rating (SETVI (Setaria viridis) [13]; Rate 0.2500 kg/ha): 9.0
Preemergence herbicidal rating SETVI (SETVI (Setaria viridis) [13]; Rate 0.2500 kg/ha): 9.0
ECHCG preemergence herbicidal rating ([14]; Rate 0.0620 kg/ha): 7.0
Preemergence herbicidal rating ECHCG ([14]; Rate 0.0620 kg/ha): 9.0
ECHCG preemergence herbicidal rating ([14]; Rate 0.1250 kg/ha): 8.0
Preemergence herbicidal rating ECHCG ([14]; Rate 0.1250 kg/ha): 9.0
ECHCG preemergence herbicidal rating ([14]; Rate 0.2500 kg/ha): 9.0
Preemergence herbicidal rating ECHCG ([14]; Rate 0.2500 kg/ha): 9.0
ABUTH herbicidal rating ([15]; rate 0.0320 kg/ha): 9.0
ABUTH herbicidal rating ([15]; rate 0.0620 kg/ha): 9.0
Postemergence herbicidal rating, ABUTH ([15]; rate 0.0320 kg/ha): 9.0
Postemergence herbicidal rating, ABUTH ([15]; rate 0.0620 kg/ha): 9.0
AMBEL herbicidal rating ([16]; rate 0.0320 kg/ha): 7.0
AMBEL herbicidal rating ([16]; rate 0.0620 kg/ha): 9.0
Postemergence herbicidal rating, AMBEL ([16]; rate 0.0320 kg/ha): 9.0
Postemergence herbicidal rating, AMBEL ([16]; rate 0.0620 kg/ha): 9.0
CHEAL herbicidal rating ([17]; rate 0.0320 kg/ha): 7.0
CHEAL herbicidal rating ([17]; rate 0.0620 kg/ha): 9.0
Postemergence herbicidal rating, CHEAL ([17]; rate 0.0320 kg/ha): 7.0
Postemergence herbicidal rating, CHEAL ([17]; rate 0.0620 kg/ha): 9.0
CASOB herbicidal rating ([18]; rate 0.0320 kg/ha): 6.0
CASOB herbicidal rating ([18]; rate 0.0620 kg/ha): 6.0
Postemergence herbicidal rating, CASOB ([18]; rate 0.0320 kg/ha): 9.0
Postemergence herbicidal rating, CASOB ([18]; rate 0.0620 kg/ha): 9.0
ORYSAT herbicidal rating (ORYSAT (Rice, Tebonnet) [19]; rate 0.0320 kg/ha): 5.5
ORYSAT herbicidal rating (ORYSAT (Rice, Tebonnet) [19]; rate 0.0620 kg/ha): 6.5
Postemergence herbicidal rating, ORYSAT (ORYSAT (Rice, Tebonnet) [19]; rate 0.0320 kg/ha): 7.0
Postemergence herbicidal rating, ORYSAT (ORYSAT (Rice, Tebonnet) [19]; rate 0.0620 kg/ha): 7.0

Source: US6706663B2, “Herbicidal 3-heterocyclic substituted benzisothiazole and benzisoxazole compounds” (Wyeth, priority 2000, dated 2004)
